Test results taken from patent publication US4291175A, “1-Hydroxymethyl-11-deoxy-15-hydroxy-prosten-1-ol-derivatives” (American Cyanamid Company, priority 1980, dated 1981).

Assays:
Format in all cases: in vivo
Settings in all cases: Konzett data
[1] = tested on: 5-HT; experiment: Konzett test, 5-HT (bronchodilator activity)
[2] = tested on: Hist; experiment: Konzett test, Hist (bronchodilator activity)
[3] = tested on: Ach; experiment: Konzett test, Ach (bronchodilator activity)

## CCCCCC(C)(O)/C=C/C1C(O)CC(=O)C1C/C=C\CCCCO (racemic) [dl-1,11,15-trihydroxymethyl-9-oxo-15-methyl-5-cis-13-trans prostadiene]
[1]
  5-HT (ED50 g/kg): 0.0083 g/kg
[2]
  Hist (ED50 g/kg): 0.00075 g/kg
[3]
  Ach (ED50 g/kg): 0.0043 g/kg
